What was measured:
Assay in all cases: relative viability (nuclei count vs DMSO), 5 days (fraction); higher = more cells survive
Irinotecan + OSI-027 = compound: CCc1c2c(nc3ccc(OC(=O)N4CCC(N5CCCCC5)CC4)cc13)-c1cc3c(c(=O)n1C2)COC(=O)[C@]3(O)CC [Irinotecan] + COc1cccc2cc(-c3nc([C@H]4CC[C@H](C(=O)O)CC4)n4ncnc(N)c34)[nH]c12 [OSI-027] (partner 0.5 µM)
Procedure, shortened: (§1)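 Relative viability equals treated-well nuclei counts divided by vehicle-well nuclei counts. Counts came from 4× images of lung cancer cell lines grown in 1536-well plates for 5 days after pin-tool dosing on the day after seeding. Dosing used one drug alone or a fixed anchor-drug dose plus five library-drug doses (not always all listed) in √10 steps, and values are medians of duplicate plates.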

RU-SKI 43 + OSI-027 = compound: CC[C@@H](C)CNCC(=O)N1CCC2=C([C@@H]1COC3=CC=CC(=C3)C)C=CS2 [RU-SKI 43] + COc1cccc2cc(-c3nc([C@H]4CC[C@H](C(=O)O)CC4)n4ncnc(N)c34)[nH]c12 [OSI-027] (partner 0.5 µM)
Procedure, shortened: as §1

RU-SKI 43 + Vorinostat = compound: CC[C@@H](C)CNCC(=O)N1CCC2=C([C@@H]1COC3=CC=CC(=C3)C)C=CS2 [RU-SKI 43] + O=C(CCCCCCC(=O)Nc1ccccc1)NO [Vorinostat] (partner 1 µM)
Procedure, shortened: as §1

MK-8033 + Alpelisib = compound: Cn1cc(-c2cnc3ccc4ccc(CS(=O)(=O)NCc5ccccn5)cc4c(=O)c3c2)cn1 [MK-8033] + Cc1nc(NC(=O)N2CCC[C@H]2C(N)=O)sc1-c1ccnc(C(C)(C)C(F)(F)F)c1 [Alpelisib] (partner 2 µM)
Procedure, shortened: as §1

Cell Line | relative viability (Irinotecan + OSI-027; first compound 0.6325 µM) | relative viability (Irinotecan + OSI-027; first compound 2 µM) | relative viability (Irinotecan + OSI-027; first compound 6.325 µM) | relative viability (Irinotecan + OSI-027; first compound 20 µM) | relative viability (RU-SKI 43 + OSI-027; first compound 0.1 µM) | relative viability (RU-SKI 43 + OSI-027; first compound 0.3162 µM) | relative viability (RU-SKI 43 + OSI-027; first compound 1 µM) | relative viability (RU-SKI 43 + OSI-027; first compound 3.162 µM) | relative viability (RU-SKI 43 + OSI-027; first compound 10 µM) | relative viability (RU-SKI 43 + Vorinostat; first compound 0.1 µM) | relative viability (RU-SKI 43 + Vorinostat; first compound 0.3162 µM) | relative viability (RU-SKI 43 + Vorinostat; first compound 1 µM) | relative viability (RU-SKI 43 + Vorinostat; first compound 3.162 µM) | relative viability (RU-SKI 43 + Vorinostat; first compound 10 µM) | relative viability (MK-8033 + Alpelisib; first compound 0.02 µM) | relative viability (MK-8033 + Alpelisib; first compound 0.06325 µM) | relative viability (MK-8033 + Alpelisib; first compound 0.2 µM) | relative viability (MK-8033 + Alpelisib; first compound 0.6325 µM) | relative viability (MK-8033 + Alpelisib; first compound 2 µM)
NCI-H596 | 0.579 | 0.927 | 0.728 | 0.581 | 0.823 | 0.729 | 0.871 | 0.764 | 0.607 | 0.853 | 0.534 | 0.669 | 0.589 | 0.501 | 0.436 | 0.511 | 0.462 | 0.46 | 0.477
NCI-H2347 | 0.27 | 0.375 | 0.337 | 0.386 | 0.414 | 0.414 | 0.697 | 0.389 | 0.328 | 0.511 | 0.621 | 0.674 | 0.595 | 0.566 | 1.05 | 0.991 | 1.02 | 1.03 | 0.975
201T | 0.723 | 0.643 | 0.344 | 0.153 | 0.834 | 0.709 | 1.06 | 0.69 | 0.458 | 0.968 | 1.17 | 1.09 | 1.06 | 0.957 | 1.11 | 0.946 | 0.976 | 1.05 | 1.04
NCI-H1734 |  | 0.509 | 0.225 | 0.165 | 0.498 | 0.638 | 0.603 | 0.671 | 0.534 | 0.821 | 0.833 | 0.81 | 0.852 | 0.701 | 0.628 | 0.57 | 0.644 | 0.654 | 0.72
SW 1573 | 0.213 | 0.566 | 0.231 | 0.122 | 0.634 | 0.797 | 0.682 | 0.741 | 0.611 | 0.746 | 0.997 | 0.963 | 0.934 | 0.767 | 0.817 |  | 0.698 | 0.687 | 0.719
NCI-H1993 | 0.584 | 0.491 | 0.574 | 0.587 | 0.53 | 0.527 | 0.596 | 0.59 | 0.575 | 0.717 | 0.969 | 0.769 | 1.08 | 0.659 | 0.612 | 0.611 | 0.649 | 0.714 | 0.675
NCI-H1755 | 0.378 | 0.652 | 0.381 | 0.42 | 0.757 | 0.825 | 0.781 | 0.841 | 0.699 | 0.746 | 0.862 | 0.848 | 0.809 | 0.859 | 0.931 | 0.883 | 0.857 | 0.909 | 0.849
PC-14 | 0.286 | 0.498 | 0.243 | 0.117 | 0.844 | 1.07 | 0.93 | 0.965 | 0.75 | 0.661 | 0.69 | 0.739 | 0.86 | 0.585 | 0.888 | 0.878 | 0.87 | 0.898 | 0.804
NCI-H358 | 0.715 | 0.377 | 0.217 | 0.125 | 0.597 | 0.642 | 0.975 | 0.865 | 0.564 | 0.642 | 0.929 | 0.708 | 0.793 | 0.614 | 0.794 | 0.755 | 0.725 | 0.797 | 0.772
LK-2 | 0.162 | 0.2 | 0.237 | 0.253 | 0.182 | 0.169 | 0.227 | 0.177 | 0.183 | 0.294 | 0.265 | 0.363 | 0.301 | 0.224 | 1.22 | 1.04 | 1.02 | 1.17 | 1
HCC-827 | 0.639 | 0.64 | 0.224 | 0.216 | 0.73 | 0.94 | 0.889 | 0.783 | 0.736 | 0.768 | 0.81 | 1.04 | 0.783 | 0.885 | 1.01 |  | 1.07 | 0.908 | 0.91
LCLC-97TM1 | 0.224 | 0.207 | 0.108 | 0.133 | 0.486 | 0.551 | 0.627 | 0.496 | 0.485 | 0.741 | 0.705 | 0.823 | 0.629 | 0.669 | 0.199 | 0.234 | 0.205 | 0.207 | 0.235
EMC-BAC-2 | 0.316 | 0.331 | 0.274 | 0.287 | 0.336 | 0.32 | 0.365 | 0.378 | 0.361 | 0.526 | 0.362 | 0.79 | 0.375 | 0.521 | 0.666 | 0.709 | 0.743 | 0.713 | 0.68
NCI-H647 | 0.564 | 0.634 | 0.277 | 0.183 | 0.647 | 0.864 | 0.755 | 0.918 | 0.707 | 0.543 | 0.948 | 0.573 | 0.731 | 0.527 | 1.18 | 1.02 | 0.929 | 1.16 | 1.07
NCI-H1944 | 0.22 | 0.349 | 0.165 | 0.161 | 0.428 | 0.397 | 0.503 | 0.445 | 0.404 | 0.548 | 0.623 | 0.522 | 0.499 | 0.513 | 0.82 |  | 0.747 | 0.849 | 0.873
PC-3 [JPC-3] | 0.46 | 0.785 | 0.397 | 0.344 | 0.682 | 0.862 | 0.797 | 0.804 | 0.366 | 0.947 | 0.727 | 0.982 | 0.651 | 0.876 | 0.959 |  | 0.998 | 1 | 0.956
SK-LU-1 | 0.302 | 0.301 | 0.293 | 0.238 | 0.324 | 0.375 | 0.342 | 0.361 | 0.317 | 0.738 | 0.893 | 0.882 | 0.795 | 0.775 | 1 | 1.04 | 0.806 | 1.02 | 0.988

From the supplement of paper PMC10307832
